We go through six compounds from ChEMBL document CHEMBL1129890, “Synthesis and evaluation of dual action cephalosporins as elastase inhibitors” (Bioorg Med Chem Lett, 1997).

Data set [1] in a line: Steady state velocity of inhibitor concentration required to inhibit porcine pancreatic elastase was determined by using Lineweaver-Burke Plot. The arrangement: species or system Sus scrofa.
Data set [2] is described as follows: Hydrolytic stability was expressed as t1/2. In kind it is physicochemical.
Data set [3] is described as follows: Steady state velocity of inhibitor concentration required to inhibit porcine pancreatic elastase was determined by using Dixon Plot. The arrangement: species or system Sus scrofa.

The compound `CO[C@H]1C(=O)N2C(C(=O)OC(C)(C)C)=C(COC(=O)c3ccccc3OC(C)=O)CS(=O)(=O)C12` (some centres undefined) returned an IC50 in data set [1] of 0.11 µM. Further, the half-life in data set [2] is 19 h.

In the case of `CC(=O)Oc1ccccc1C(=O)OCC1=C(C(=O)OC(C)(C)C)N2C(=O)[C@H](Cl)C2S(=O)(=O)C1` (some centres undefined), the values for the IC50 in data set [1] and in data set [3] were 0.25 µM and 0.35 µM, respectively. Also, the half-life in data set [2] is 2.3 h.

`CC1=C(C(=O)OC(C)(C)C)N2C(=O)[C@H](Cl)C2S(=O)(=O)C1` (some centres undefined): the IC50 came out at 35 µM in data set [1] and 11 µM in data set [3].

For the compound `CO[C@H]1C(=O)N2C(C(=O)OC(C)(C)C)=C(C)CS(=O)(=O)C12` (some centres undefined), the IC50 in data set [1] amounted to 73 µM; in data set [3] it was 11 µM.

On to `CO[C@H]1C(=O)N2C(C(=O)OC(C)(C)C)=C(COC(=O)Cc3ccccc3Nc3c(Cl)cccc3Cl)CS(=O)(=O)C12` (some centres undefined), for which the IC50 in data set [1] is 0.11 µM. The half-life in data set [2] is 60 h.

As for `CC(C)(C)OC(=O)C1=C(COC(=O)Cc2ccccc2Nc2c(Cl)cccc2Cl)CS(=O)(=O)C2[C@@H](Cl)C(=O)N12` (some centres undefined), the IC50 in data set [1] stood at 0.18 µM; in data set [3], 0.68 µM. This compound also had a half-life in data set [2] of 73 h.
